Assay results taken from patent US20230288402A1, “MOLECULES TARGETING RIBOSOMAL PROTEIN RPL35/UL29 FOR USE IN THE TREATMENT OF DISEASES, IN PARTICULAR EPIDERMOLYSIS BULLOSA (EB)” (KBHB CONSULT GMBH, priority 2020, published 2023).

Key:
[1] = system: Lamb3-PTC-FF; assay: In-vivo dual luciferase reporter read-out in yeast cells, Lamb3-PTC-FF reporter; assay type: cell-based; details: normalized to untreated control
Description: (§1) Luciferase read-out data are represented normalized to the individual luciferase reporter (Ren, Lamb3-FF, Lamb3-PTC-FF) read-outs in the untreated state set at 100% (normalizer); for renilla control—the untreated state—mean and standard deviation of quantifications from twelve biological replicates, each with six technical replicates (72 reads), are shown. For Lamb3-FF control—the untreated state—mean and standard deviation of quantifications from six biological replicates, each with six technical replicates (36 reads), are shown. For Lamb3-PTC control—the untreated state—mean and standard deviation of quantifications from two biological replicates, each with six technical replicates (12 reads), are shown. Quantification upon treatment with ART and ATZ, respectively, for both, Ren (216 reads) and Lamb3-FF (105 reads), is shown by combining read-out data obtained by treatment with 2, 4, and 10 μM ART and ATZ (treated), respectively, and is normalized to the respective untreated control (normalizer). For luciferase reporter read-outs of Lamb3-PTC-FF treated with 2 μM, 4 μM and 10 μM ART and 2, 4, and 10 nM ATZ, respectively, mean and standard deviation of quantification from two biological replicates for ART (12 reads) and three biological replicates for ATZ (18 reads), with six technical replicates each, are shown normalized to Lamb3-PTC-FF control.
(§2) Luciferase read-out data are represented normalized to the individual luciferase reporter (Lamb3-FF, Lamb3-PTC-FF, FF, and FF-PTC) of a respective control in the untreated state set at 100% (normalizer). Twelve biological replicates (n=12) for all detections. Normalization for treatment is shown, additional controls were run, but are not shown. Dosages: ART 2 μM, ATZ 1.6 nM and erythromycin 4 μM, respectively. Combination treatment […] are 50 nM and 0.08 nM, respectively, i.e. 40-fold and 20-fold less than individually applied compounds.
The inventors opted to first test small molecule action in the versatile yeast cell factory, employing the dual luciferase reporter system used in the original 2-SSRS (Bauer et al., 2013).

[2] = system: Lamb3-FF; assay: In-vivo dual luciferase reporter read-out in yeast cells, Lamb3-FF reporter; assay type: cell-based; details: for protein expression level of Lamb3-FF luciferase reporter upon small molecule treatment: combined read-outs of 2, 4 and 10 μM; for increase for Lamb3-FF protein expression: not significant
Description: as §1
Obtaining evidence for drug directed manipulation of rpL35 to selectively increase full-length Lamb3-PTC expression has to be tested in functional assays. The inventors opted to first test small molecule action in the versatile yeast cell factory, employing the dual luciferase reporter system used in the original 2-SSRS (Bauer et al., 2013).

[3] = system: renilla luciferase reporter; assay: In-vivo dual luciferase reporter read-out in yeast cells, renilla luciferase reporter; assay type: cell-based; details: combined read-outs of 2, 4 and 10 μM
Description: as §1, with “control. […]” for “control.”

[4] = system: Lamb3PTC; assay: Hela in vitro translation assays; assay type: biochemical, human
[5] = target: T1, human rpL35 (Homo sapiens, UniProt P42766); assay: NMR titration series (2D 1H,15N HSQC) of 15N rpL35-His6 with ligand; assay type: binding; parameters: MBP (N, cleaved yes); made in house; host or cells: E. coli BL21; details: for number of amide signals with significant chemical shift perturbations: HSQC spectrum upon ligand addition; for binding to human rpL35 by NMR titration: changes in NMR spectra in presence of small molecule
Procedure: NMR experiments were recorded at 25° C. (298K) on a 700 MHz Bruker Ascend spectrometer equipped with cryogenically cooled TCI probe. All spectra were processed using Topspin 3.5 and analyzed with CARA 1.8.4.2. (Keller R. Optimizing the Process of Nuclear Magnetic Resonance Spectrum Analysis and Computer Aided Resonance Assignment. ETH Zurich; 2004) and NMRFAM-Sparky (Lee W, Tonelli M, Markley J L. NMRFAM-SPARKY: enhanced software for biomolecular NMR spectroscopy. Bioinformatics. 2015 Apr. 15; 31(8):1325-7). Concentration of ^15N labeled rpL35-His6 ranged from 200 to 400 μM and the sample was measured in a salt tolerant susceptibility matched slot tube (Shigemi™) with total volume of 170 μl.
NMR spectroscopy is able by comparative analysis of protein vs. protein+small molecule binder to asses binding sites of the small molecule on the protein. In this initial study the affinity of rpL35 towards artesunate and atazanavir was established by a simple titration series in which the inventors have been tracking perturbations to chemical shifts and peak heights in the 2D ^1H, ^15N HSQC spectrum. Aliquots of artesunate/atazanavir were added into the solution of ^15N rpL35 of which 2D 1H, ^15N HSQC spectrum was recorded immediately upon ligand addition. Perturbations of protein chemical shifts in ^15N HSQC spectrum are indicative of changes to the chemical environment of amide groups caused by binding of a ligand to the protein target.
Following the artesunate-protein rpL35 complex titration, the inventors have recorded 3D spectra of the same sample using ^15N NOESY-HSQC, ^15N TOCSY-HSQC, HNHA pulse sequences. The inventors extracted chemical shifts of amide ^1H, ^15N, HA, HB from the above mentioned spectra, and compared measured values with the average chemical shifts of common amino acids in Biological Magnetic resonance Data Bank (BMRB; http://www.bmrb.wisc.edu). In the 3D ^1H, ^15N NOESY-HSQC the inventors focused also on the presence of water signal which can indicate if the amino group is solvent accessible. […] However, collection of the basic set of chemical shifts mentioned earlier allowed the inventors to estimate amino acid type since many of them have quite characteristic values (e. g. alanine, threonine, and glycine). 3D ^15N TOCSY-HSQC helped the inventors to differentiate between amino acid types which have similar NH chemical shifts, such as leucine, lysine, valine. […] Using this approach the inventors obtained a set of protein signals which changed their position in 2D ^1H^15N-HSQC spectrum upon interaction with the ligand (artesunate, atazanavir) and information on the most probable amino acid type. […]

[6] = system: Lamb3 protein with the R635XPTC mutation; details: very high, therapeutically not applicable dose; cited from earlier work
[7] = system: laminin 332; details: primary keratinocytes from three GS-JEB patients; cited from earlier work
[8] = target: T1, human rpL35; details: cited from earlier work
[9] = system: FF-PTC; assay: In-vivo dual luciferase reporter read-out in yeast cells, FF-PTC reporter; assay type: cell-based; details: erythromycin 4 μM; indicator of lack of specific activity
Procedure: as §2

Compound	increase in full-length Lamb3-PTC-FF protein expression ([1]; treatment with 2 μM) [fold]	increase in full-length Lamb3-PTC-FF protein expression ([1]; treatment with 4 μM) [fold]	increase in full-length Lamb3-PTC-FF protein expression ([1]; treatment with 10 μM) [fold]	protein expression level of Lamb3-FF luciferase reporter upon small molecule treatment [2]	protein expression level of renilla luciferase reporter upon small molecule treatment [3]	Lamb3PTC expression [4]	number of amide signals with significant chemical shift perturbations [5]	binding to human rpL35 by NMR titration [5]	Lamb3 protein expression relative to normal level [6] [%]	induction of functional laminin 332 [7]	increase for Lamb3-FF protein expression ([2]; treatment with 4 μM)	increase for Lamb3-FF protein expression ([2]; treatment with 10 μM) [fold]	binding to human rpL35 in biotinylation assay [8]	FF-PTC reporter read-out upon treatment [9]
COC(=O)N[C@H](C(=O)N[C@@H](Cc1ccccc1)[C@@H](O)CN(Cc1ccc(-c2ccccn2)cc1)NC(=O)[C@@H](NC(=O)OC)C(C)(C)C)C(C)(C)C [atazanavir]	1.8	1.9	2.2	no significant increase	no significant increase	increase	5	bind human rpL35 protein at several possible binding pockets	–	–	–	–	–	–
gentamicin	–	–	–	–	–	–	–	–	30	induced functional laminin 332	–	–	–	–
C[C@H]1[C@H](OC(=O)CCC(=O)O)O[C@@H]2O[C@@]3(C)CC[C@H]4[C@H](C)CC[C@@H]1[C@@]24OO3 [artesunate]	2.2	–	–	no significant increase	no significant increase	increase	10	bind human rpL35 protein at several possible binding pockets	–	–	1,1 fold	1.2	binder of human rpL35	–
CC[C@H]1OC(=O)[C@H](C)[C@@H](O[C@H]2C[C@@](C)(OC)[C@@H](O)[C@H](C)O2)[C@H](C)[C@@H](O[C@@H]2O[C@H](C)C[C@H](N(C)C)[C@H]2O)[C@](C)(O)C[C@@H](C)C(=O)[C@H](C)[C@@H](O)[C@]1(C)O [erythromycin]	–	–	–	–	–	–	–	–	–	–	–	–	–	increase
